Test results reported in US5306812A, “Immunoglobulin-binding polypeptides” (The Regents of the University of California, priority 1990, dated 1994).
Where no end group is shown, it is not given here.

Columns and labels:
[1] = system: binding of peptide p21-49 to immunoglobulin (monoclonal antibodies 62 and OKT4A); experiment: ELISA: binding of p21-49 to immunoglobulins in the presence of dextran sulfate; design: species or system murine; conditions: dextran sulfate 0.01 ug/ml to 50 ug/ml; both monoclonal antibody 62 (anti-thyroglobulin) and OKT4A (anti-CD4)
Description: The binding of peptide p21-49 to various immunoglobulins was determined in the presence of varying concentration of dextran sulfate. Briefly, peptide p21-49 was affixed to the wells of microliter plates as described in Example 1B. Dextran sulfate was then admixed to individual wells at a final concentration ranging from 0.01 ug/ml to 50 ug/ml. The first antibody, either a murine monoclonal antibody immunospecific for thyroglobulin or a murine monoclonal antibody immunospecific for CD4 protein was diluted to approximately 4 ug/ml in binding buffer and admixed to each well. The wells were maintained at room temperature for 4 hours in a humidified atmosphere. The wells were then washed 6 times with washing buffer and the excess liquid removed by aspiration. The assay was completed according to Example 1B.

[2] = system: murine monoclonal antibodies; experiment: ELISA: binding of solid-phase CD4 peptide to murine monoclonal antibodies; design: species or system mouse; conditions: compared with p21-38 and p21-49 or with background
Description: The plate was maintained for six hours at 37 degrees (37° C.) on a rotating platform to allow the peptide to adhere to the wells and form solid supports. After aspirating the excess liquid from the wells, 200 ul of washing solution containing TWEEN 20 (0.5% polyoxyethylenesorbitan monolaurate) in phosphate buffered saline (0.5M sodium chloride, 0.01M sodium phosphate at pH 7.2; PBS) was admixed to each well and immediately removed by aspiration. After aspirating the excess liquid from the wells 200 ul of blocking solution consisting of 1% bovine serum albumin (BSA) in phosphate buffered saline at pH 7.4 was admixed to each well, and the wells maintained at room temperature for one hour. The wells were washed with 200 ul a solution containing 0.5% TWEEN-20 (Polyoxyethylenesorbitan monolaurate) in PBS and the wash solution immediately removed by aspiration.
A first antibody, either a murine monoclonal antibody or a purified human myeloma protein was diluted to approximately 80 ug per ml in binding buffer consisting of 1% BSA and 0.5% TWEEN 20 (polyoxyethylenesorbitan monolaurate) in PBS and then various amounts, depending on the final antibody concentration desired, were admixed to each well and the wells maintained at room temperature for 3 or 4 hours in a humidified atmosphere. The wells were then washed 6 times with washing buffer and the excess liquid removed by aspiration.
50 ul of a horse radish peroxidase (HRP)-conjugated anti-mouse Ig secondary antibody (Cappel, Cochranvile, Pa.) or HRP-conjugated antihuman Ig (Sigma, St. Louis, Mo.) diluted 1:10,000 and 1:1,500, respectively, in binding buffer supplemented with 15% heat inactivated calf serum, was then admixed to each well. The wells were maintained for 1 hour at room temperature and then washed several times with washing buffer. 100 ul of freshly prepared substrate, prepared by adding 4 mg of 0-phenylendiamine and 4 ul of a 30% solution of hydrogen peroxide to 10 ml of a buffer containing 0.1M citric acid and 0.2M dibasic sodium phosphate at pH 5.0. were admixed to each well. The wells were then maintained (incubated) for 30 minutes at room temperature in the dark. The reaction was stopped by adding 25 ul per well of a stop buffer consisting of aqueous 4N H2 SO4. The amount of colored reaction product produced was determined by measuring the absorbance at 492 nanometers (nm).
Each peptide's ability to bind mouse monoclonal antibodies was determined using the ELISA assay described in Example 1B.

| Substance | inhibition of peptide p21-49 binding to immunoglobulin (FIG. 7) [1] | relative binding of CD4 peptides (FIG. 15) [2] |
| --- | --- | --- |
| dextran sulfate | inhibits the binding |  |
| IQFHWKNSNQIKILG [p 24-38, IQ FHWKN SNQIK ILG] |  | comparable binding with that of p21-38 and p21-49 |
| KSIQFHWKNSNQIKILG [p 22-38, KSIQ FHWKN SNQIK ILG] |  | comparable binding with that of p21-38 and p21-49 |
| KKSIQFHWKNSNQIKIL [p 21-37, KKSIQ FHWKN SNQIK IL] |  | comparable binding with that of p21-38 and p21-49 |
| SIQFHWKNSNQIKILG [p 23-38, SIQ FHWKN SNQIK ILG] |  | comparable binding with that of p21-38 and p21-49 |
